# Values of other authors, collected in patent publication US9857359B2, “Methods for determining drug efficacy using cereblon-associated proteins” (CELGENE CORPORATION, priority 2012, dated 2018).
# Biological target: CRBN (Homo sapiens, UniProt Q96SW2)
# Details: in vitro; Ito et al., Science 2010; cited from earlier work
# Chain of CRBN (Q96SW2 whole entry): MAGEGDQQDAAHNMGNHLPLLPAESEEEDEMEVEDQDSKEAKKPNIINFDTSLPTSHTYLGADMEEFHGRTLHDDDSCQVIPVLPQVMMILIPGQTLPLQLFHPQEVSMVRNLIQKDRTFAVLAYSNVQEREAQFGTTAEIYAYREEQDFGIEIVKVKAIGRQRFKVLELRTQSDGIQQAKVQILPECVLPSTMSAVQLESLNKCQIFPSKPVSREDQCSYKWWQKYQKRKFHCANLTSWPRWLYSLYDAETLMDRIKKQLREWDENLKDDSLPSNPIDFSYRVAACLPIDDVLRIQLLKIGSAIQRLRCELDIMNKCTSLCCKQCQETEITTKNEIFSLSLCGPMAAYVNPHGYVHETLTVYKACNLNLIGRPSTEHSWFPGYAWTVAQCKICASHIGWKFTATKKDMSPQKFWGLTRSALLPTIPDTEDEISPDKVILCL
# Chain of CRBN (Q16531 whole entry partner): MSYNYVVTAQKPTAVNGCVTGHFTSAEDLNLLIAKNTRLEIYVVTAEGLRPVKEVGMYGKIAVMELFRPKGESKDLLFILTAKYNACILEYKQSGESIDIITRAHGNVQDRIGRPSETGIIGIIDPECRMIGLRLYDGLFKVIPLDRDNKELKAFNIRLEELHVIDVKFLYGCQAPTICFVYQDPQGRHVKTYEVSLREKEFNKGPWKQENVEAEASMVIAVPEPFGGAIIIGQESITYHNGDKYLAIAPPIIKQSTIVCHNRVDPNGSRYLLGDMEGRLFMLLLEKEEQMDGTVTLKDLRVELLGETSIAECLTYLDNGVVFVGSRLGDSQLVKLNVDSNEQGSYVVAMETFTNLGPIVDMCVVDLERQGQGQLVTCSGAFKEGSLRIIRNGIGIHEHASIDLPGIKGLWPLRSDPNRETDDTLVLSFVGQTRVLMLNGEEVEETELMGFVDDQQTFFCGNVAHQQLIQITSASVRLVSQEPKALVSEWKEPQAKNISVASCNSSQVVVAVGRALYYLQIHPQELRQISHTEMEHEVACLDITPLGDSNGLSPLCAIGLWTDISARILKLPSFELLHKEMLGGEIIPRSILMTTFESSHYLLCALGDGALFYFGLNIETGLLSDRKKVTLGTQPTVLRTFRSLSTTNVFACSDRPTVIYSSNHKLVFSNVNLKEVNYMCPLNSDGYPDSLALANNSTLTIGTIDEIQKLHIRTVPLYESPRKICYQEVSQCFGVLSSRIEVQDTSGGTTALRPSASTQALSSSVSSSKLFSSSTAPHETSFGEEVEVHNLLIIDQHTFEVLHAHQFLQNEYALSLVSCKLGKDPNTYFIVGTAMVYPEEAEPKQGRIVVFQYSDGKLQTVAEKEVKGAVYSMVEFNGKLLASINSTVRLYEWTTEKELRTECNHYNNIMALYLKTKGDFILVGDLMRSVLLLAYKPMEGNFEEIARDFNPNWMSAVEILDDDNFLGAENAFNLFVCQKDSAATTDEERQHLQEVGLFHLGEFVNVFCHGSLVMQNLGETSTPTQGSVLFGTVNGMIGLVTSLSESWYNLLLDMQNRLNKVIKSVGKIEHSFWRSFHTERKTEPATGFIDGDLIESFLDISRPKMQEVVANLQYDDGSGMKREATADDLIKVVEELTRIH
# Chain of CRBN (Q13619 whole entry partner): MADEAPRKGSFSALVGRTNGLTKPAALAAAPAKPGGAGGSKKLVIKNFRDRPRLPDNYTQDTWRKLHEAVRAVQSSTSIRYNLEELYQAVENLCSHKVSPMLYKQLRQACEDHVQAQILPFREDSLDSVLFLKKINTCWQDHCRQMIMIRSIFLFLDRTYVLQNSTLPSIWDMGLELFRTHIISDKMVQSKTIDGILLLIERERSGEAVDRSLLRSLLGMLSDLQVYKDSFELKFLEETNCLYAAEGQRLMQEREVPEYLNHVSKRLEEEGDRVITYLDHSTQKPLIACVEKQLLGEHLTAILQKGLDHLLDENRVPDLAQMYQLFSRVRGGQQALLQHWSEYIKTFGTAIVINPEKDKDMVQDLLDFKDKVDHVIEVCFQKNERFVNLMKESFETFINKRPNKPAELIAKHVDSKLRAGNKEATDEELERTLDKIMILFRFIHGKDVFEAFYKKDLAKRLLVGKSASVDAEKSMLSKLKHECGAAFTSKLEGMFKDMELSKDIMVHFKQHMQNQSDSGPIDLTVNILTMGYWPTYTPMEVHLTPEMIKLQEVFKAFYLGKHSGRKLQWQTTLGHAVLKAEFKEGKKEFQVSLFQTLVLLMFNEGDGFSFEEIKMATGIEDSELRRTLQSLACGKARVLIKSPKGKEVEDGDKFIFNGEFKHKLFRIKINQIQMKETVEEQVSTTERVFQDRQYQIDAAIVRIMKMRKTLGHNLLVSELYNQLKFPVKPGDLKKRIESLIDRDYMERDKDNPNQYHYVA
# Chain of CRBN (P62877 whole entry partner): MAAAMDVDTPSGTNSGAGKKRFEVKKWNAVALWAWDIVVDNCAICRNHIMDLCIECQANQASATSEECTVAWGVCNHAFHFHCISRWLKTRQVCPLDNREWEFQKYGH
compound,measurement,value
O=C1CCC(N2C(=O)c3ccccc3C2=O)C(=O)N1 (stereo not shown) [thalidomide],Auto-ubiquitination of CRBN,inhibit auto-ubiquitination of CRBN in vitro
